# Measured values reported in patent publication EP0917880A1, “Inclusion complex of diiodomethyl-p-tolylsulfone with cyclodextrin derivatives” (Wacker-Chemie GmbH, priority 1997, dated 1999).
# What was measured:
# [1] = tested on: Rhizopus oryzae; test: Determination of Minimum Inhibitory Concentrations (MIC), Sabouraud media; format: cell-based; details: Rhizopus arrhizus, Amical in free form
# Description: (§1) The efficacy of Amical in comparison to Amical/methyl-β-cyclodextrin inclusion compound against different microorganism was tested by measuring the Minimum Inhibitory Concentrations (MIC in µg/ml). For the cell cultures Sabouraud media were used. […]
# [2] = tested on: Aspergillus niger; test: as above; format: cell-based; details: Amical in free form
# Description: as §1
# [3] = tested on: Cladosporium cladosporioides; test: as above; format: cell-based; details: Amical in free form
# Description: as §1
# [4] = tested on: Penicillium citrinum; test: as above; format: cell-based; details: Amical in free form
# Description: as §1
# [5] = water; cited from earlier work
compound,measurement,setting,value
"Cc1ccc(S(=O)(=O)C(I)I)cc1 [Amical, diiodomethyl-p-tolylsulfone]",MIC,[1],7.5 to 14 µg/mL
same,MIC,[2],1.2 µg/mL
same,MIC,[3],1.3 µg/mL
same,MIC,[4],3.8 µg/mL
same,watersolubility,[5],less than 5 ppm
